Assay results taken from patent publication US20240189408A1, “COMPOSITIONS AND METHODS FOR REDUCING METHANE EMISSIONS IN RUMINANT POPULATIONS” (Arkea Bio Corp., priority 2022, published 2024).
Like-named read-outs stand apart in the source and are kept apart here. Each block holds one compound with its values, some of them ahead of it.

Tests used:
rumen methanogens [1] = conditions: sheep, 0.5 g/day; cited from earlier work
rumen methanogens [2] = conditions: cited from earlier work
[3] = 3-NOP volatility, mass loss open to air; assay type: physicochemical; conditions: 500 mg in 5 dram vial open to air, ~18-24C, 15-30% RH, 6 days
Method: 3-NOP Volatility:500 mg of 3-NOP in a 5 dram vial was left open to air at ˜18-24C at 15-30% RH over the course of 6 days. Average mass loss is ˜0.25% per day.

[4] = test system: methane production in ruminants; conditions: cited from earlier work
[5] = 3-NOP pH and temperature stability by HPLC; assay type: physicochemical; conditions: 1-month, 4-30C, pH 4-10
Excerpt: 3-NOP pH and Temperature Stability: Confirmed via HPLC over a 1-month time period at temperature between 4-30C and pH 4-10.

[6] = 3-NOP to adsorbent ratio study; assay type: physicochemical; conditions: 24 hr, HPLC
Method: Optimal loading of 3-NOP onto adsorbents was determined by varying ratios of 3-NOP to adsorbent. 3-NOP and adsorbent were speed mixed at 2000 rpm for 1 min at the following ratios by weight: 1:1.5, 1:2, 1:2.5. The adsorbed 3-NOP powder mixture was then placed in distilled water at 1% 3-NOP loading. The solution was allowed to equilibrate for 24 hr and then an aliquot was taken for HPLC to determine the reduction in 3-NOP concentration.

rumen Methanobrevibacter = conditions: 5.6 μmol/L, in vitro; rumen bacteria not inhibited; cited from earlier work
rumen methanogens [7] = conditions: 3.5 g/L, continuous fermenters with forages as a substrate; cited from earlier work
rumen methanogens [8] = conditions: goats, 10 g/day/goat; cited from earlier work
[9] = test system: Methanobrevibacter ruminantium; experiment: Methane production of methanogen monocultures treated with sera from vaccinated animals; assay type: cell-based; conditions: small molecule inhibitor at 3 different concentrations, FIG. 17B
Method: Briefly, BY medium is inoculated with a methanogen-of-interest and combined with serum. The culture tube is crimped closed and pressurized with 80% hydrogen, 20% carbon dioxide. The cultures are incubated and methane in measured intermittently using a GazoMat handheld methane monitoring device. Methane is plotted as a function of time for the various treatment groups and the control group.
200 uL of serum from vaccinated animals were added to sterile anaerobic culture tubes. Open plasma containing tubes were placed into an anaerobic chamber containing 95% nitrogen and 5% hydrogen and allowed to stand 1 hr at ambient temperature. A single seeded culture of methanogen (M. gottschalkii or M. ruminantium) was prepared in BY medium at a volume sufficient to distribute 2.5 mL to each plasma sample and control tube. 2.5 mL of methanogen culture was added to each tube containing the serum, a septa was inserted and crimped into place. Sealed tubes were removed from the anaerobic chamber and each was pressurized with 25 PSI 80% H2, 20% CO2 gas via a hypodermic needle through the septum. Tubes were placed into a 38° C. shaking incubator and periodically removed for methane measurements. Methane measurements in the tube headspace were made with a handheld remote methane detector using a jig to hold the instrument and tube during measurement.

Average mass loss [3]: ~0.25 % per day | pH and Temperature Stability [5]: Confirmed | Average Integrated Area of 3-NOP in solution ([6]; 3-NOP:Adsorbent 1:1.5, distilled water at 1% 3-NOP loading): 2566.4 | Average Integrated Area of 3-NOP in solution ([6]; 3-NOP:Adsorbent 1:2, distilled water at 1% 3-NOP loading): 2566.4 | Average Integrated Area of 3-NOP in solution ([6]; 3-NOP:Adsorbent 1:2.5, distilled water at 1% 3-NOP loading): 2566.4
SMILES: O=[N+]([O-])OCCCO [3-NOP, 3-nitrooxypropanol]
decrease of CH4 production (rumen methanogens [1]): 29% | decrease of CH4 yield (rumen methanogens [2]; beef cattle, 2.0 g/day/cow): 59% | persistence of the inhibition (rumen methanogens [2]; beef cattle, 2.0 g/day/cow): up to 112 days | decrease of CH4 production (rumen methanogens [2]; dairy cows, 40-80 mg/kg feed DM, persistently for up to 84 days): about 30% | degree of CH4 suppression (rumen methanogens [2]; directly added to the rumen through rumen cannula, daily dose 0.50 or 2.5 g per cow): 7-10% | Addition amount; maximum methane suppression amount ([4]; 0.08 mg/g dry matter (Alvarez-Hess et al., 2019)): 0.08 mg/g dry matter; 44% | Addition amount; maximum methane suppression amount ([4]; 60 mg/kg of feed dry matter (Melgar et al., 2020)): 26%/day (Melgar et al., 2020) | Addition amount; maximum methane suppression amount ([4]; 1.6 g, concentrate pellet (Van Wesemael et al., 2019)): 23% | Addition amount; maximum methane suppression amount ([4]; 1.6 g, roughage (Van Wesemael et al., 2019)): 28%

SMILES: CC[C@H](C)C(=O)O[C@H]1CCC=C2C=C[C@H](C)[C@H](CC[C@@H]3C[C@@H](O)CC(=O)O3)[C@H]21 [mevastatin]
growth (rumen Methanobrevibacter): inhibited the growth of all three strains

SMILES: O=C(O)/C=C/C(=O)O [fumarate]
decrease of CH4 production (rumen methanogens [7]): 38% | decrease of abundance of methanogens and CH4 production (rumen methanogens [8]): 11.9%

SMILES: CCCCCCCCCCCC(=O)O [lauric acid]
methane production rate [9]: reduction is methane production rate
